Positions count from the first letter of the chain named.
How the values were obtained:
Test in all cases: E. coli hemG growth inhibition by herbicide, AtPPO1 variant
Type in all cases: cell-based
Conditions in all cases: read-out: percentage growth inhibition
[1] = molecular target: T1, AtPPO1 E111D (Arabidopsis thaliana, UniProt P55826, E111D)
T1 construct: expressed in transfected cells; host or cells: E. coli BL21(DE3) hemG (hemG replaced by CmR), pET24a plasmid
T1 sequence (P55826 35-537 E111D): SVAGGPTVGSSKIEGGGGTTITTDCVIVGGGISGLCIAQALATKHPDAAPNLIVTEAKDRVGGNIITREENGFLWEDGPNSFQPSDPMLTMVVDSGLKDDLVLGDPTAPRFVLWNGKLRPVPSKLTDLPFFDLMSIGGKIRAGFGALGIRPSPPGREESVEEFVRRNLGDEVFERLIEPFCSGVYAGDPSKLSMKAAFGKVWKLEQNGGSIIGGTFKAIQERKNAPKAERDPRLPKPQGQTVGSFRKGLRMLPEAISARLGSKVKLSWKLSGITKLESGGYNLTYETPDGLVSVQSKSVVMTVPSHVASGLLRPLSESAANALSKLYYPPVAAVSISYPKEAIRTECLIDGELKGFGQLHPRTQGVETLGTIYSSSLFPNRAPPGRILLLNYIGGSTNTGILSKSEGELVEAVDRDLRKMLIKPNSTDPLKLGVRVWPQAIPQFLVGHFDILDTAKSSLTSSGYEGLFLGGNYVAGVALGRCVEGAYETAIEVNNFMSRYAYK
Outline: (§1)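 Variant plasmids were transformed into hemG-null BL21(DE3) and precultured 24 h with hematin. Washed cells were diluted 1:100 into Terrific broth containing 0.1 mM IPTG and herbicide (6.25 ppm 0 or E; 0.78 ppm B) or DMSO. After 24 h at 37° C, OD600 gave percent inhibition.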

[2] = molecular target: T2, AtPPO1 Y219S (Arabidopsis thaliana, UniProt P55826, Y219S)
T2 construct: expressed in transfected cells; host or cells: E. coli BL21(DE3) hemG (hemG replaced by CmR), pET24a plasmid
T2 sequence (P55826 35-537 Y219S): T1 sequence (P55826 35-537 E111D) with D77E, Y185S
Outline: as §1

[3] = molecular target: T3, AtPPO1 WT (Arabidopsis thaliana, UniProt P55826)
T3 construct: expressed in transfected cells; host or cells: E. coli BL21(DE3) hemG (hemG replaced by CmR), pET24a plasmid
T3 sequence (P55826 1-537): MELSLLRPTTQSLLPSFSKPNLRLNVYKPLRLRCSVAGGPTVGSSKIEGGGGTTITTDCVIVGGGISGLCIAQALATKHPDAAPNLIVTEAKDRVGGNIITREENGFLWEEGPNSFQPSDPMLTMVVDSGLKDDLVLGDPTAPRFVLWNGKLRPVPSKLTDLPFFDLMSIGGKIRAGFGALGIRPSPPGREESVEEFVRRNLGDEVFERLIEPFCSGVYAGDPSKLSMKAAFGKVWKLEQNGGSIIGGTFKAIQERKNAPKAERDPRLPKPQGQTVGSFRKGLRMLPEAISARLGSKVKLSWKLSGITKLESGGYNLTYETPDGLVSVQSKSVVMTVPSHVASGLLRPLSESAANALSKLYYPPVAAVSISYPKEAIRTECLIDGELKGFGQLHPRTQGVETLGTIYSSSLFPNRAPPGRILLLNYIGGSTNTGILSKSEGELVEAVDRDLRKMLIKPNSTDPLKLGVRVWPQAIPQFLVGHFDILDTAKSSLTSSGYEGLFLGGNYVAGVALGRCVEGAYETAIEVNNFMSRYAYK
Outline: as §1

[4] = molecular target: T4, AtPPO1 G510N (Arabidopsis thaliana, UniProt P55826, G510N)
T4 construct: expressed in transfected cells; host or cells: E. coli BL21(DE3) hemG, pET24a plasmid
T4 sequence (P55826 35-537 G510N): T1 sequence (P55826 35-537 E111D) with D77E, G476N
Outline: as §1

| SMILES | inhibition at 6.25 ppm [1] | inhibition at 6.25 ppm [2] | inhibition at 6.25 ppm [3] | inhibition at 6.25 ppm [4] | inhibition at 0.78 ppm [1] | inhibition at 0.78 ppm [2] | inhibition at 0.78 ppm [3] | inhibition at 0.78 ppm [4] |
| --- | --- | --- | --- | --- | --- | --- | --- | --- |
| CCOC(=O)[C@]1(C)CC(c2cc(-n3c(=O)n(C)c(=S)n(C)c3=O)c(F)cc2Cl)=NO1 [Herbicide D, ethyl (5S)-3-[2-chloro-5-(3,5-dimethyl-2,6-dioxo-4-thioxo-1,3,5-triazinan-1-yl)-4-fluoro-phenyl]-5-methyl-4H-isoxazole-5-carboxylate] | 30% | 33% | 58% | 31% |  |  |  |  |
| C#CCN1C(=O)C(F)(F)Oc2cc(F)c(-n3c(=O)n(C)c(=S)n(C)c3=O)cc21 [Herbicide B, trifludimoxazin] |  |  |  |  | 23% | 28% | 61% | 24% |
| CC(C)N(C)S(=O)(=O)NC(=O)c1cc(-n2c(=O)cc(C(F)(F)F)n(C)c2=O)c(F)cc1Cl [Herbicide E, saflufenacil] | 69% | 49% | 64% | 70% |  |  |  |  |

From patent US20260297542A1, “HERBICIDE RESISTANT PLANTS” (SYNGENTA CROP PROTECTION AG, priority 2023, published 2026)
